Measured values: patent US12178830B2, “Compositions and methods for adoptive cell therapy for cancer” (MEMORIAL SLOAN KETTERING CANCER CENTER, priority 2017, dated 2024)
Where “and” joins values, the source holds several entries; their conditions need not be identical. Equal entries are not always repeated. Where two headings read alike, the source gives them in different places.

What was measured:
[1] = test system: normal human fibroblast MRC5; test: CellTitre Glo in vitro cytotoxicity, MRC5; format: cell-based
Method: (§1) In vitro cytotoxicity of AMS-related structures was also assessed to determine the modifications of AMS that alter cytotoxicity. The in vitro cytotoxicity of each of these AMS-related structures was tested against both hepatocellular carcinoma HepG2 and normal human fibroblast MRC5 cell lines using a CellTitre Glo® assay (Promega, Madison, WI) The modifications and results are provided in Table 1 below.

[2] = test system: hepatocellular carcinoma HepG2; test: CellTitre Glo in vitro cytotoxicity, HepG2; format: cell-based
Method: This example describes the synthesis of exemplary prodrugs based on sulfamoyladenosine (AMS) (structure 1c) (FIG. 2C) for cleavage by the bacterial hydrolase enzyme CPG2. AMS is a close analog of nucleocidin and a potent cytotoxic molecule (HepG2 IC50=9 nM). […] Based on these SAR data, AMS prodrug 1a (“P-AMS”; FIG. 2C) was synthesized from 2′,3′-O-isopropylidene-5′-O-TBS-adenosine (structure 3, FIG. 2D) by 6-N-acylation with CDI-activated bis-O-t-Bu-glutamate (30%), desilylation (TBAF), sulfamoylation (H2NSO2C1, DMA), and acetonide hydrolysis (TFA, H2O, 15% over 3 steps). Two alternative N-sulfamate-linked prodrugs (not shown) attached via CO-PAB-CO and TML-CO linkers were synthesized (FIG. 2B). A more detailed discussion of the P-AMS synthesis and the synthesis of the N-sulfamate-linked prodrug attached via a TML-CO linker (“Trimethyllock-AMS”) is provided below in this example. As an alternative cytotoxic using a known anticancer therapeutic, the mustard prodrug ZD2767P (structure 2a, FIG. 2C) was also synthesized as previously reported (Springer et al., J Med Chem. 37(15):2361-70(1994) and Niculescu-Duvaz et al., Tetrahedron Lett. 46(40):6919-22 (2005)).
as §1

HL 60 (leukemia) = test: CellTitre Glo in vitro cytotoxicity, HL 60; format: cell-based
Method: (§2) The in vitro cytotoxicity of AMS (structure 1c) and its prodrug variant (structure 1a) was tested against a variety of cell lines using a CellTitre Glo® assay (Promega, Madison, WI). […] Moreover, co-treatment with the prodrug and supernatant from CPG2-transfected HEK293T cells (see Example 3) led to cytotoxicity approaching that of the free drug (50 nM), consistent with CPG2-mediated cleavage of the prodrug to release the active parent drug. […] In contrast, AMS prodrug 1a was not activated by HEK293T cells expressing CPG intracellularly, which likely attributed to poor cell-penetrance of the prodrug due to the free bis-anionic gluatamate moiety.

HEK293T (kidney) = test: CellTitre Glo in vitro cytotoxicity, HEK293T; format: cell-based, human
Jurkat (T cell) = test: CellTitre Glo in vitro cytotoxicity, Jurkat; format: cell-based, human
primary T-cells = test: CellTitre Glo in vitro cytotoxicity, primary T cells; format: cell-based, human
[3] = test system: non-small cell lung carcinoma cell line PC9; test: CellTitre-Glo viability, PC9; format: cell-based, human
Method: FIG. 14 provides exemplary data showing that Human T cells, but not cancer cells, are resistant to Erlotinib. (A) Human Jurkat T cells (red circle) and human non-small cell lung carcinoma cell lines PC9 (black square) and HCC827 (blue triangle) were treated with increasing concentrations of the receptor tyrosine kinase inhibitor Erlotinib. […] Cell viability was measured at 48 hours by CellTitre-Glo® luminescence.
FIG. 14 provides exemplary data showing that Human T cells, but not cancer cells, are resistant to Erlotinib. Human Jurkat T cells, primary T cells and human non-small cell lung carcinoma cell lines PC9 and HCC827 were treated with increasing concentrations of the receptor tyrosine kinase inhibitor Erlotinib. […] PC9 cells were incubated in the presence of Erlotinib, P-Erlotinib, or P-Erlotinib in the presence of purified CPG2. Cell viability was measured at 48 hours by CellTitre-Glo® luminescence.

[4] = test system: non-small cell lung carcinoma cell line HCC827; test: CellTitre-Glo viability, HCC827; format: cell-based, human; conditions: HCC827, 48 hours
Method: Human Jurkat T cells, primary T cells and human non-small cell lung carcinoma cell lines PC9 and HCC827 were treated with increasing concentrations of the receptor tyrosine kinase inhibitor Erlotinib. […] Cell viability was measured at 48 hours by CellTitre-Glo® luminescence.

[5] = Cell permeability in CACO-2 cells; format: in vitro ADME, human; conditions: human
[6] = test system: lung adenocarcinoma cells (HCC827); test: Co-culture of GFP+ 293tCPGTM cells with HCC827 plus erlotinib prodrug; format: cell-based; conditions: 293tCPGTM:HCC827 various ratios, 120 hr
Method: FIG. 15 provides exemplary data showing the pro-drug activity of 293T cells expressing transmembrane CPG2. GFP+293t^CPGTM cells were co-cultured with lung adenocarcinoma cells (HCC827) at various ratios (293t^CPGTM:HCC827) and the erlotinib prodrug (p-erlotinib) was added. (A) Cells were analyzed at 120 hour by flow cytometry and % GFP was calculated. (B) Ratio of 293t^CPGTM cells to HCC827 cells was calculated for each cell ratio.
The retroviral constructs encoding the anti-CD19 CAR and transmembrane CPG2 enzyme described above were transduced into 293T cells to test the conversion activity of transmembrane CPG2 for an Erlotinib prodrug. GFP+293t^CPGTM cells were co-cultured with lung adenocarcinoma cells (HCC827) at various ratios (293t^CPGTM:HCC827) and the erlotinib prodrug (p-erlotinib) was added. Cells were analyzed at 120 hr. by flow cytometry (FIG. 15A) and the percentage of GFP cells and the ratio of 293t^CPGTM cells to HCC827 cells was calculated for each cell ratio (FIG. 15B).

Jurkat T cells = test: Jurkat viability with prodrug plus supernatant from CPG2-secreting HEK293T cells; format: cell-based, human
Method: as §2
Jurkat T cells were exposed to increasing concentrations of AMS (circle) or Pro-AMS with media alone (triangle) or supernatant from CPG2-secreting HEK293T cells (square). Cell viability was measured at 48 hours by CellTitre-Glo® luminescence assay.
Jurkat T cells were exposed to increasing concentrations of ZD2767P with media alone (triangle) or supernatant from CPG2-secreting HEK293T cells (square). Cell viability was measured at 48 hours by CellTitre-Glo® luminescence assay.

[7] = test system: myeloid leukemia cell line SET2; test: CellTitre Glo in vitro cytotoxicity, SET2; format: cell-based; conditions: Set2; prodrug vs AMS
SET2 cells = test: SET2 viability with prodrug plus recombinant enzyme or enzyme-containing supernatant; format: cell-based; conditions: Beta-lactamase supernatant; control media did not
Method: Recombinant CPG2 protein was initially synthesized, purified (FIGS. 18A and 18B), and incubated with increasing concentrations of prodrug in a glutamate release assay (FIG. 17C). Mass spectrometry was used to determine that the glutamate moiety was released from all of the glutamate prodrugs. The in vitro cytotoxicity of the prodrugs (FIG. 17B) were tested against the myeloid leukemia cell line SET2 using a CellTitre Glo® assay (Promega, Madison, WI).
SET2 cells were exposed to increasing concentrations of AMS (square) or glut-AMS with media alone (− control, triangle) or supernatant from CPG2-secreting HEK293t cells (circle). Cell viability was measured by CellTitre-Glo® luminescence assay.
Thus, antigen-dependent expansion of SEAKER T cells results in increased output of enzyme into the extracellular milieu.
To determine to respective enzyme output of the Beta-lactamase constructs relative to the previous CPG2 constructs, a quantitative sandwich ELISA was used to determine the concentration (ng/mL) of purified recombinant CPG2, and a quantitative nitrocefin assay was used to determine the concentration (ng/mL) of purified recombinant Beta-lactamase (FIG. 25A). Cell viability was measured by CellTitre-Glo® luminescence in the presence of prodrug (glut-AMS or ceph-AMS) and varying concentrations of purified recombinant CPG2 or Beta-lactamase (FIG. 25B).

[8] = Caco-2, with Ver (so in the source), concentration not stated, + Ver

Compound	IC50 [1]	IC50 ([2]; read-out: IC50, HepG2)	other results
Nc1nc(N)c2ncn([C@@H]3O[C@H](COS(N)(=O)=O)[C@@H](O)[C@H]3O)c2n1 [2-NH2-AMS]	< 1 µM and 1.17 µM	< 1 µM and 1.75 µM	
Nc1nc(Nc2ccccc2)nc2c1ncn2[C@@H]1O[C@H](COS(N)(=O)=O)[C@@H](O)[C@H]1O [2-NHPh-AMS]	124 µM	> 500 µM	
Nc1nc(-c2ccccc2)nc2c1ncn2[C@@H]1O[C@H](COS(N)(=O)=O)[C@@H](O)[C@H]1O [2-phenyl-AMS]	> 500 µM	~500 µM	
Nc1ncnc2c1ncn2[C@H]1C[C@H](O)[C@@H](COS(N)(=O)=O)O1 [2′-deoxy-AMS]		< 1 µM and 0.55 µM	
NS(=O)(=O)OC[C@H]1O[C@@H](n2cnc3c(NC4CC4)ncnc32)[C@H](O)[C@@H]1O [6-NCyp-AMS]	7.2 µM	10.9 µM	
CNc1ncnc2c1ncn2[C@@H]1O[C@H](COS(N)(=O)=O)[C@@H](O)[C@H]1O [6-NHMe-AMS]	0.9 µM	1.8 µM	
CN(C)c1ncnc2c1ncn2[C@@H]1O[C@H](COS(N)(=O)=O)[C@@H](O)[C@H]1O [6-NMe2-AMS]	> 500 µM	> 500 µM	
COc1ncnc2c1ncn2[C@@H]1O[C@H](COS(N)(=O)=O)[C@@H](O)[C@H]1O [6-OMe-AMS]	129 µM	141 µM	
Nc1ncnc2c1nc(Cl)n2[C@@H]1O[C@H](COS(N)(=O)=O)[C@@H](O)[C@H]1O [8-Cl-AMS]	3.2 µM and 3.51 µM		
CCCc1nc2c(N)ncnc2n1[C@@H]1O[C@H](COS(N)(=O)=O)[C@@H](O)[C@H]1O [8-propyl-AMS]	> 500 µM	> 500 µM	
Nc1ncnc2c1ncn2[C@@H]1O[C@H](CNS(N)(=O)=O)[C@@H](O)[C@H]1O [AMSN]	0.39 µM	0.36 µM	
Nc1ncnc2c1ncn2[C@@H]1O[C@H](COS(N)(=O)=O)[C@@H](O)[C@H]1O [AMS]	0.03 µM		IC50 (HL 60 (leukemia)): 70 nM; IC50 (HEK293T (kidney); HEK293T, read-out: IC50): 666 nM; IC50 (Jurkat (T cell); Jurkat, read-out: IC50): 18 nM; IC50 (primary T-cells; primary T-cells, read-out: IC50): 66 nM; IC50 ([2]; read-out: HepG2 IC50): 0.009 µM
Nc1ccn([C@@H]2O[C@H](COS(N)(=O)=O)[C@@H](O)[C@H]2O)c(=O)n1 [CMS]	> 500 µM	> 500 µM	
C#Cc1cccc(Nc2ncnc3cc(OCCOC)c(OCCOC)cc23)c1 [Erlotinib, reference compound]			response to increasing concentrations ([3]; PC9, 48 hours): significant cell death; response to increasing concentrations [4]: significant cell death; response to increasing concentrations (Jurkat (T cell); T cell lines (Jurkat), 48 hours): exhibited resistance; response to increasing concentrations (primary T-cells; primary T cells): exhibited resistance
Nc1nc2c(ncn2[C@@H]2O[C@H](COS(N)(=O)=O)[C@@H](O)[C@H]2O)c(=O)[nH]1 [GMS]	> 500 µM	> 500 µM	
NS(=O)(=O)OC[C@H]1O[C@@H](n2cnc3c(O)ncnc32)[C@H](O)[C@@H]1O [IMS]	> 500 µM	> 500 µM	
CN(C)C(=O)C(CCN1CCC(O)(c2ccc(Cl)cc2)CC1)(c1ccccc1)c1ccccc1 [Loperamide]			Papp A→B [5, 8]: 10.5 ± 1.5 ×10⁻⁶ cm/s; Papp B→A [5, 8]: 7.8 ± 0.5 ×10⁻⁶ cm/s; Papp A→B ([5]; Caco-2): 2.2 ± 0.3 ×10⁻⁶ cm/s; Papp B→A ([5]; Caco-2): 16.9 ± 1.1 ×10⁻⁶ cm/s
C#Cc1cccc(N(Cc2ccc(NC(=O)N[C@@H](CCC(=O)O)C(=O)O)cc2)c2ncnc3cc(OCCOC)c(OCCOC)cc23)c1 [P-Erlotinib, ((4-(((6,7-bis(2-methoxyethoxy)quinazolin-4-yl)(3-ethynylphenyl)amino)methyl)phenyl)carbamoyl)-L-glutamic acid]			toxicity in PC9 cells ([3]; 1 μM, without CPG2, 48 hours): no toxicity; activity of cleaved prodrug in PC9 cells ([3]; in the presence of purified CPG2, 48 hours): comparable activity to the active drug; killing in co-culture with transmembrane CPG2 cells [6]: kills the target cancer cell, but not the cell secreting the enzyme
Cc1cn([C@H]2C[C@H](O)[C@@H](COS(N)(=O)=O)O2)c(=O)[nH]c1=O [TMS]	> 500 µM	> 500 µM	
NS(=O)(=O)OC[C@H]1O[C@@H](n2ccc(=O)[nH]c2=O)[C@H](O)[C@@H]1O [UMS]	> 500 µM	> 500 µM	
O=C(O)CC[C@H](NC(=O)Oc1ccc(N(CCI)CCI)cc1)C(=O)O [ZD2767P]			cell viability with prodrug and CPG2 supernatant (Jurkat T cells; increasing prodrug, 48 hours, supernatant from CPG2-secreting HEK293T cells): significant decrease in cell viability; IC50 (Jurkat T cells; with CPG2 supernatant): 1700 nM
Nc1ncnc2c1ncn2[C@@H]1O[C@H](COS(=O)(=O)NCC2=C(C(=O)O)N3C(=O)[C@@H](NC(=O)Cc4cccs4)[C@H]3SC2)[C@@H](O)[C@H]1O [ceph-AMS]			Selective Index [7]: ~64; SET2 cell viability with prodrug and Beta-lactamase supernatant (SET2 cells): significant decrease in cell viability; Selective Index (HEK293T (kidney); HEK293t, prodrug vs AMS): ~3; Selective Index (primary T-cells; Human T cell, prodrug vs AMS): >6
